In patent US20260284209A1, “POLYPEPTIDE ADJUVANTS AND USES THEREOF” (BOARD OF REGENTS, THE UNIVERSITY OF TEXAS SYSTEM, priority 2023, published 2026):

What was measured:
[1] = tested on: cGAS-STING, MyD88 and canonical NF-κB pathways in M2 BMDMs; assay: Western blotting of cGAS-STING, MyD88 and canonical NF-κB pathways; format: cell-based, mouse; settings: excessive ER stress induction
Protocol: A western blot was performed as described in Example 1, to assess whether the cationic polypeptides activate innate immune sensors in APCs.

[2] = tested on: ER stress markers BiP, EIF2α, CHOP, XBP1 in bone marrow-derived macrophages; assay: ER stress markers (western blotting, XBP1 RT-qPCR); format: cell-based, mouse
Protocol: M2 BMDMs (1.5×10^7 cells/100 mm^2 petri dish) or cancer cells (2×10^6 cells per 6-well plates) were treated with the experimental solutions. To evaluate inhibitory conditions, cells were pre-treated with CsA (10 μM, TCI America) for 3 h, or co-treated with 4-PBA (5 mM in phosphate-buffered saline [PBS], Tocris Bioscience, USA) and chloroquine (10 μg/mL, Alfa Aesar, USA). Each protein was extracted by using RIPA buffer containing 1% protease inhibitor and 1% phosphatase inhibitor cocktail. Protein concentrations were adjusted to 3 mg/mL by using a BCA kit, with FBS used as a standard. Electrophoresis was carried out by loading proteins (40 μg) into each lane of a sodium dodecyl sulfate-polyacrylamide gel (SDS-PAGE) gel, after which the proteins were transferred to a polyvinylidene fluoride membrane. After blocking, the PVDF membrane was treated with the corresponding primary antibody, and then washed with TBS-T three times before the treatment with the secondary antibody. The blot signals were visualized with a Chemidoc system (ChemiDoc MP imaging system, BioRad, USA).

tunicamycin
activation of MyD88 and STING in macrophages [1]: inhibited activation of MyD88 and STING in macrophages
ER stress / ER stress markers [2]: detrimental levels
